Experimental data taken from patent US6720346B2, “Thiazole benzamide derivatives and pharmaceutical compositions for inhibiting cell proliferation” (Agouron Pharmaceuticals, Inc., priority 2001, dated 2004).

Key:
human CDK4/cyclin D3 = molecular target: T1, human CDK4/cyclin D3 (Homo sapiens, UniProt P11802); experiment: Inhibition of CDK4/cyclin D retinoblastoma kinase activity (Ki; % inhibition); format: biochemical
T1 construct: made in house; host or cells: insect cells co-infected with baculovirus vectors
T1 sequence (P11802 whole entry): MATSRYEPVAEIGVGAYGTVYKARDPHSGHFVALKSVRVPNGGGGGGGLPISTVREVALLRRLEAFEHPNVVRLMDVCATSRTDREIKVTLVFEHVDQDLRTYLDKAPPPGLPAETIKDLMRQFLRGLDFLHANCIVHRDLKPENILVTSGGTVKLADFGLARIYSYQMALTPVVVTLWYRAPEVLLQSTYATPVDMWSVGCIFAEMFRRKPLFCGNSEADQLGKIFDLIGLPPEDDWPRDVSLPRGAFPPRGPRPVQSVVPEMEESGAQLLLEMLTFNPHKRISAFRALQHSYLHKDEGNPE
T1 sequence (P30281 1-264 partner limits assumed): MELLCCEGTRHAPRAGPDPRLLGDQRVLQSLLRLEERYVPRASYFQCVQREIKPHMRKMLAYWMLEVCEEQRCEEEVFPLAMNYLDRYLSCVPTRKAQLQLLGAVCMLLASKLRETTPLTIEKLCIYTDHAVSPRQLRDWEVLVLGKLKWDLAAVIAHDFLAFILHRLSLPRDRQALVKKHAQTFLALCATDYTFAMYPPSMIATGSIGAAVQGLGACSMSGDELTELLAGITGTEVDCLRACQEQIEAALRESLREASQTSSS
How it was run: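 Insect-cell-expressed CDK4 with truncated cyclin D3 (1-264), 5 nM, phosphorylating His-tagged Rb fragment (386-928) with 25 μM [32/33P]ATP at pH 7.4, 30 °C, 20 min (60 min for tight binders). Filter capture, phosphorimager read; % inhibition at 30 nM compound, Ki from competitive or tight-binding fits.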

HCT-116 cell line = experiment: Inhibition of cell growth, MTT tetrazolium salt assay; format: cell-based
How it was run: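 HCT-116 cells in McCoy's 5A were dosed 4 h after plating with compounds in 0.5% DMSO and grown 3–5 days at 37 °C. Then 0.2 mg/mL MTT was added for 4 h and formazan absorbance read at 540 nm. IC50/IC90 came from semi-log plots against DMSO-only controls.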

CDK2/cyclin A = molecular target: T2, CDK2/cyclin A (Homo sapiens, UniProt P24941); experiment: Inhibition of CDK2/cyclin A retinoblastoma kinase activity (Ki; % inhibition); format: biochemical
T2 construct: made in house; host or cells: CDK2: insect cells (baculovirus); cyclin A: E. coli
How it was run: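 Radiometric filter assay of CDK2/proteolyzed cyclin A (baculovirus-expressed human CDK2, 10 or 19 nM) phosphorylating an Rb fragment with 25 μM [³²P/³³P]ATP in pH 7.4 HEPES, 2% DMSO, at 30 °C for 60 or 75 min under initial-rate conditions. Library compounds screened at 30 nM for % inhibition; apparent Ki from concentration series fit to competitive or tight-binding inhibition equations.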

[1] = HCT-116 cells, 0.25 μM compound

| SMILES | CDK4 % Inhibition at 0.03 μM (human CDK4/cyclin D3; at 0.03 μM) [%] | CDK2 % Inhibition at 0.03 μM (CDK2/cyclin A; at 0.03 μM) [%] | CDK4 % Inhibition at 0.03 μM (human CDK4/cyclin D3; 0.03 μM compound) [%] | CDK2 % Inhibition at 0.03 μM (CDK2/cyclin A; 0.03 μM compound) [%] | HCT-116 % Inhibition at 0.25 μM (HCT-116 cell line; HCT-116, at 0.25 μM) [%] | HCT-116 % Inhibition at 0.1 μM (HCT-116 cell line; HCT-116 cells, 0.1 μM compound) [%] | HCT-116 % Inhibition at 0.25 μM (HCT-116 cell line; [1]) [%] | further results |
| --- | --- | --- | --- | --- | --- | --- | --- | --- |
| Nc1nc(Nc2ccc(C(=O)Nc3ccc4c(c3)S(=O)(=O)C=C4)cc2)sc1C(=O)c1c(F)cccc1F [Example G115] | 24 | 27 | – | – | 88 | – | – | HCT-116 % Inhibition at 0.1 μM (HCT-116 cell line; HCT-116, at 0.1 μM): 30% |
| CCN(CC)CCCN(C)C(=O)c1ccc(Nc2nc(N)c(C(=O)c3c(F)cccc3F)s2)cc1 [Example G260] | – | – | 1 | −27 | – | 30 | 59 | – |
| Cc1ccsc1C(=O)c1sc(Nc2ccc(C(=O)NC[C@@H]3CCCN3C)cc2)nc1N [Example A70, 4-{4-Amino-5-[1-(3-methyl-thiophen-2-yl)-methanoyl]-thiazol-2-ylamino}-N-(1-methyl-pyrrolidin-2S-ylmethyl)-benzamide] | – | – | – | – | – | – | – | Ki (human CDK4/cyclin D3; apparent Ki, CDK4/cyclin D3, Rb substrate): 128 nM; IC50 (HCT-116 cell line; Homo sapiens, HCT-116, 120 h, MTT, three to five days): 23 nM; Ki (CDK2/cyclin A; apparent Ki, CDK2/cyclin A, Rb substrate): 6.1 nM |
| Cc1ccc(O)c(NC(=O)c2ccc(Nc3nc(N)c(C(=O)c4c(F)cccc4F)s3)cc2)c1 [Example G396] | – | – | 9 | −6 | – | 14 | 67 | – |
| CN1CCN(C(=O)c2ccc(Nc3nc(N)c(C(=O)c4c(F)cccc4F)s3)cc2)CC1 [Example G2] | 8 | −9 | – | – | 51 | – | – | – |
| CCN(CCO)C(=O)c1ccc(Nc2nc(N)c(C(=O)c3c(F)cccc3F)s2)cc1 [Example G25] | 10 | −16 | – | – | 52 | – | – | – |
| COc1cc(CNC(=O)c2ccc(Nc3nc(N)c(C(=O)c4c(F)cccc4F)s3)cc2)cc(OC)c1 [Example G262] | – | – | 28 | 1 | – | 24 | 59 | – |
| Nc1nc(Nc2ccc(C(=O)Nc3cccc4cnccc34)cc2)sc1C(=O)c1c(F)cccc1F [Example G83] | 7 | 16 | – | – | 64 | – | – | – |
| CCN(Cc1ccncc1)C(=O)c1ccc(Nc2nc(N)c(C(=O)c3c(F)cccc3F)s2)cc1 [Example G28] | 19 | 1 | – | – | 66 | – | – | – |

Further lines, with some results ahead:

| CDK4 % Inhibition at 0.03 μM (human CDK4/cyclin D3; at 0.03 μM) [%] | CDK2 % Inhibition at 0.03 μM (CDK2/cyclin A; at 0.03 μM) [%] | CDK4 % Inhibition at 0.03 μM (human CDK4/cyclin D3; 0.03 μM compound) [%] | CDK2 % Inhibition at 0.03 μM (CDK2/cyclin A; 0.03 μM compound) [%] | SMILES | HCT-116 % Inhibition at 0.25 μM (HCT-116 cell line; HCT-116, at 0.25 μM) [%] | HCT-116 % Inhibition at 0.1 μM (HCT-116 cell line; HCT-116 cells, 0.1 μM compound) [%] | HCT-116 % Inhibition at 0.25 μM (HCT-116 cell line; [1]) [%] | further results |
| --- | --- | --- | --- | --- | --- | --- | --- | --- |
| 23 | 8 | – | – | CNC(=O)C(C)NC(=O)c1ccc(Nc2nc(N)c(C(=O)c3c(F)cccc3F)s2)cc1 (centres unmarked) [Example G192] | 49 | – | – | HCT-116 % Inhibition at 0.1 μM (HCT-116 cell line; HCT-116, at 0.1 μM): 13% |
| 13 | −6 | – | – | CC(CCc1ccccc1)NC(=O)c1ccc(Nc2nc(N)c(C(=O)c3c(F)cccc3F)s2)cc1 (centres unmarked) [Example G133] | 47 | – | – | HCT-116 % Inhibition at 0.1 μM (HCT-116 cell line; HCT-116, at 0.1 μM): 0% |
| – | – | 26 | 18 | COc1ccc(CCNC(=O)c2ccc(Nc3nc(N)c(C(=O)c4c(F)cccc4F)s3)cc2)cc1 [Example G238] | – | 22 | 58 | – |
| – | – | 23 | 17 | CC(C)CCNC(=O)c1ccc(Nc2nc(N)c(C(=O)c3c(F)cccc3F)s2)cc1 [Example G247] | – | 12 | 54 | – |
| – | – | 27 | 30 | CC(O)c1cccc(NC(=O)c2ccc(Nc3nc(N)c(C(=O)c4c(F)cccc4F)s3)cc2)c1 (centres unmarked) [Example G222] | – | 8 | 61 | – |
| – | – | 16 | 9 | CCN(Cc1ccccc1)C(=O)c1ccc(Nc2nc(N)c(C(=O)c3c(F)cccc3F)s2)cc1 [Example G209] | – | 9 | 50 | – |
| – | – | 34 | 17 | Nc1nc(Nc2ccc(C(=O)N3CCN(Cc4ccccc4)CC3)cc2)sc1C(=O)c1c(F)cccc1F [Example G217] | – | 8 | 51 | – |
